Test results: patent US10112907B2, “Substituted indazoles for treating tendon and/or ligament injuries” (NOVARTIS AG, priority 2016, dated 2018)
Like-named read-outs stand apart in the source and are kept apart here.

Key:
[1] = system: Scleraxis (Scx) gene expression in rat tail tendon fascicles; experiment: Ex vivo assay, Scx mRNA in tendon fascicles (qPCR); format: cell-based, Sprague Dawley rat
[2] = system: Tenomodulin (Tnmd) gene expression in rat tail tendon fascicles; experiment: Ex vivo assay, Tnmd mRNA in tendon fascicles (qPCR); format: cell-based, Sprague Dawley rat
[3] = system: collagen type I (Col1a2) gene expression in rat tail tendon fascicles; experiment: Ex vivo assay, Col1a2 mRNA in tendon fascicles (qPCR); format: cell-based, Sprague Dawley rat
[4] = system: Scleraxis (Scx) gene transcriptional activation in TT-D6 Scx-luciferase (ScxL) cell line; experiment: SCX-LUC in vitro assay (Scx-luciferase reporter); format: cell-based; details: Mus musculus
[5] = 96 h, Table 3, four days, read-out: Ex vivo Scx (EC50 μM)
[6] = 96 h, Table 3, four days, read-out: Ex vivo Tnmd (EC50 μM)
[7] = 96 h, Table 3, four days, read-out: Ex vivo Col1a2 (EC50 μM)
[8] = 96 h, Table 3, four days, read-out: Scx-Luc (EC50 μM)
[9] = Table 1, read-out: Ex vivo SCX (EC50 uM)
[10] = Table 1, read-out: Ex vivo Tnmd (EC50 uM)
[11] = Table 1, read-out: Ex vivo Col1a2 (EC50 uM)
[12] = Table 1, read-out: Scx-Luc (EC50 uM)

Compound | EC50 [1, 5] | EC50 [2, 6] | EC50 [3, 7] | EC50 [4, 8] | further results
Cc1cc(S(=O)(=O)NC2CC(O)(C3CC3)C2)ccc1-c1ccc2[nH]nc(N)c2c1C (stereo not drawn) [Example 50, 4-(3-amino-4-methyl-1H-indazol-5-yl)-N-(3-cyclopropyl-3-hydroxycyclobutyl)-3-methylbenzenesulfonamide] | 3.26 µM | 7.38 µM | 2.01 µM | 1.29 µM | –
Cc1cc(S(=O)(=O)N(C)C2CC(F)(F)C2)ccc1-c1ccc2[nH]nc(N)c2c1C [Example 63, 4-(3-amino-4-methyl-1H-indazol-5-yl)-N-(3,3-difluorocyclobutyl)-N,3-dimethylbenzenesulfonamide] | 1.38 µM | 5.41 µM | 1.79 µM | 0.222 µM | –
Cc1cc(S(=O)(=O)N2CCC[C@H]2CO)ccc1-c1ccc2[nH]nc(N)c2c1C [Example 19, (S)-(1-((4-(3-amino-4-methyl-1H-indazol-5-yl)-3-methylphenyl)sulfonyl)pyrrolidin-2-yl)methanol] | 10 µM | 10 µM | 10 µM | 0.431 µM | –
C[C@@H](O)c1nc2cnc3[nH]ccc3c2n1[C@H]1CCCOC1 [reference compound] | – | – | – | – | EC50 [1, 9]: 3.31 µM; EC50 [2, 10]: 4.19 µM; EC50 [3, 11]: 4.32 µM; EC50 [4, 12]: 0.82 µM
C[C@@H](O)c1nc2cnc3[nH]ccc3c2n1[C@@H]1CCCOC1 [reference compound] | – | – | – | – | EC50 [1, 9]: 0.08 µM; EC50 [2, 10]: 6.11 µM; EC50 [3, 11]: 4.66 µM; EC50 ([4]; read-out: Scx-Luc (EC50 uM)): 1.34 µM
Cc1cc(S(=O)(=O)N[C@H]2C[C@@H](O)C2)ccc1-c1ccc2[nH]nc(N)c2c1C [Example 12, 4-(3-amino-4-methyl-1H-indazol-5-yl)-N-((1s,3s)-3-hydroxycyclobutyl)-3-methylbenzenesulfonamide] | 1.73 µM | 10 µM | 10 µM | 2.21 µM | –
Nc1n[nH]c2ccc(-c3ccc(S(=O)(=O)N[C@@H]4CCC[C@@H]4O)cc3Cl)c(Cl)c12 [Example 69, 4-(3-amino-4-chloro-1H-indazol-5-yl)-3-chloro-N-((1R,2S)-2-hydroxycyclopentyl)benzenesulfonamide] | 1.05 µM | 3.84 µM | 1.48 µM | 0.148 µM | –
CCC1(O)CC(NS(=O)(=O)c2ccc(-c3ccc4[nH]nc(N)c4c3C)c(C)c2)C1 (stereo not drawn) [Example 49, 4-(3-amino-4-methyl-1H-indazol-5-yl)-N-(3-ethyl-3-hydroxycyclobutyl)-3-methylbenzenesulfonamide] | 3.04 µM | 2.78 µM | 2.23 µM | 0.852 µM | –
Cc1c(-c2ccc(S(=O)(=O)N[C@H]3C[C@@H](O)C3)cc2Cl)ccc2[nH]nc(N)c12 [Example 34, 4-(3-amino-4-methyl-1H-indazol-5-yl)-3-chloro-N-((1s,3s)-3-hydroxycyclobutyl)benzenesulfonamide] | 1.54 µM | 0.078 µM | 5.92 µM | 0.614 µM | –
O=C(Nc1nc2cccc(-c3ccc(OCc4ccc[n+]([O-])c4)cc3)n2n1)C1CC1 [reference compound] | – | – | – | – | EC50 [1, 9]: 0.36 µM; EC50 [2, 10]: 5.99 µM; EC50 [3, 11]: 0.4 µM; EC50 [4, 12]: 0.02 µM
Cc1cc(S(=O)(=O)N2CC[C@H](O)C2)ccc1-c1ccc2[nH]nc(N)c2c1C [Example 5, (S)-1-((4-(3-amino-4-methyl-1H-indazol-5-yl)-3-methylphenyl)sulfonyl)pyrrolidin-3-ol] | 3.62 µM | 1.6 µM | 2.63 µM | 0.275 µM | –
Cc1cc(S(=O)(=O)N2CC(F)(F)C[C@H]2CO)ccc1-c1ccc2[nH]nc(N)c2c1Cl [Example 54, (S)-(1-((4-(3-amino-4-chloro-1H-indazol-5-yl)-3-methylphenyl)sulfonyl)-4,4-difluoropyrrolidin-2-yl)methanol] | 3.8 µM | 0.706 µM | 4.42 µM | 0.242 µM | –
Cc1cc(S(=O)(=O)N[C@@H]2COCC[C@H]2O)ccc1-c1ccc2[nH]nc(N)c2c1C [Example 45, 4-(3-amino-4-methyl-1H-indazol-5-yl)-N-((3R,4R)-4-hydroxytetrahydro-2H-pyran-3-yl)-3-methylbenzenesulfonamide] | 4.44 µM | 2.85 µM | 2.41 µM | 1.25 µM | –
Cc1cc(S(=O)(=O)N2CC[C@@H](O)C2)ccc1-c1ccc2[nH]nc(N)c2c1Cl [Example 7, (R)-1-((4-(3-amino-4-chloro-1H-indazol-5-yl)-3-methylphenyl)sulfonyl)pyrrolidin-3-ol] | 5.35 µM | 0.463 µM | 3.31 µM | 2.02 µM | –
Cc1cc(S(=O)(=O)NC2CCC(F)(F)CC2)ccc1-c1ccc2[nH]nc(N)c2c1C [Example 43, 4-(3-amino-4-methyl-1H-indazol-5-yl)-N-(4,4-difluorocyclohexyl)-3-methylbenzenesulfonamide] | 3.37 µM | 4.87 µM | 3.45 µM | 0.696 µM | –
COc1ccc(-c2nc3c(NCC4CCNCC4)c(Cl)cnc3[nH]2)c(F)c1 [reference compound] | – | – | – | – | EC50 [1, 9]: 0.47 µM; EC50 [2, 10]: 0.08 µM; EC50 [3, 11]: 1.15 µM; EC50 [4, 12]: 0.51 µM
Cc1cc(S(=O)(=O)NC2CCOCC2)ccc1-c1ccc2[nH]nc(N)c2c1C [Example 21, 4-(3-amino-4-methyl-1H-indazol-5-yl)-3-methyl-N-(tetrahydro-2H-pyran-4-yl)benzenesulfonamide] | 3.7 µM | 6.64 µM | 5.32 µM | 1.26 µM | –
Cc1cc(S(=O)(=O)N[C@@H]2CCCC[C@H]2O)ccc1-c1ccc2[nH]nc(N)c2c1C [Example 16, 4-(3-amino-4-methyl-1H-indazol-5-yl)-N-((1R,2R)-2-hydroxycyclohexyl)-3-methylbenzenesulfonamide] | 1.75 µM | 0.447 µM | 0.557 µM | 0.638 µM | –
Cc1cc(S(=O)(=O)N2CC[C@@H](O)C2)ccc1-c1ccc2[nH]nc(N)c2c1C [Example 4, (R)-1-((4-(3-amino-4-methyl-1H-indazol-5-yl)-3-methylphenyl)sulfonyl)pyrrolidin-3-ol] | 1.64 µM | 0.513 µM | 1.55 µM | 0.511 µM | –
N#CCNC(=O)c1ccc(-c2ccnc(Nc3ccc(N4CCOCC4)cc3)n2)cc1 [reference compound] | – | – | – | – | EC50 [1, 9]: 3.92 µM; EC50 [2, 10]: 3.27 µM; EC50 [3, 11]: 4.67 µM; EC50 [4, 12]: 0.12 µM
Cc1cc(S(=O)(=O)N2CCC(O)CC2)ccc1-c1ccc2[nH]nc(N)c2c1C [Example 14, 1-((4-(3-amino-4-methyl-1H-indazol-5-yl)-3-methylphenyl)sulfonyl)piperidin-4-ol] | 7.28 µM | 6.97 µM | 2.64 µM | 3.92 µM | –
C1=C/COCc2cc(ccc2OCCN2CCCC2)Nc2nccc(n2)-c2cccc(c2)COC/1 [reference compound] | – | – | – | – | EC50 [1, 9]: 3.32 µM; EC50 [2, 10]: 6.71 µM; EC50 [3, 11]: 3.11 µM; EC50 ([4]; read-out: Scx-Luc (EC50 uM)): 1.06 µM
C[C@@H](O)c1nc2cnc3[nH]ccc3c2n1[C@H]1CC[C@H](C#N)CC1 [reference compound] | – | – | – | – | EC50 [1, 9]: 4.27 µM; EC50 [2, 10]: 6.38 µM; EC50 [3, 11]: 6.62 µM; EC50 ([4]; read-out: Scx-Luc (EC50 uM)): 2.69 µM
Cc1c(-c2ccc(S(=O)(=O)N[C@H]3C[C@](O)(C(F)(F)F)C3)cc2Cl)ccc2[nH]nc(N)c12 [Example 55, 4-(3-amino-4-methyl-1H-indazol-5-yl)-3-chloro-N-((1s,3s)-3-hydroxy-3-(trifluoromethyl)cyclobutyl)benzenesulfonamide] | 3.14 µM | 5.5 µM | 3.5 µM | 0.228 µM | –
Cc1cc(S(=O)(=O)N[C@@H]2CCC[C@@H]2O)ccc1-c1ccc2[nH]nc(N)c2c1C [Example 18, 4-(3-amino-4-methyl-1H-indazol-5-yl)-N-((1R,2S)-2-hydroxycyclopentyl)-3-methylbenzenesulfonamide] | 2.52 µM | 1.06 µM | 2.53 µM | 0.468 µM | –
O=C(Nc1nc2cccc(-c3ccc(CN4CCS(=O)(=O)CC4)cc3)n2n1)C1CC1 [reference compound] | – | – | – | – | EC50 ([1]; read-out: Ex vivo SCX (EC50 uM)): 5.34 µM; EC50 ([2]; read-out: Ex vivo Tnmd (EC50 uM)): 6.93 µM; EC50 ([3]; read-out: Ex vivo Col1a2 (EC50 uM)): 5.01 µM; EC50 ([4]; read-out: Scx-Luc (EC50 uM)): 4.32 µM
Cc1cc(S(=O)(=O)N[C@H]2C[C@@](C)(O)C2)ccc1-c1ccc2[nH]nc(N)c2c1C [Example 40, 4-(3-amino-4-methyl-1H-indazol-5-yl)-N-((1s,3s)-3-hydroxy-3-methylcyclobutyl)-3-methylbenzenesulfonamide] | 2.69 µM | 2.92 µM | 1.82 µM | 0.988 µM | –
Cc1cc(S(=O)(=O)NC2CC(O)(Cc3ccccc3)C2)ccc1-c1ccc2[nH]nc(N)c2c1C (stereo not drawn) [Example 51, 4-(3-amino-4-methyl-1H-indazol-5-yl)-N-(3-benzyl-3-hydroxycyclobutyl)-3-methylbenzenesulfonamide] | 6.98 µM | 6.8 µM | 6.39 µM | 1.58 µM | –
CC1(C)CN(C(=O)c2ccc(-c3cccc4nc(NC(=O)C5CC5)nn34)cc2)C1 [reference compound] | – | – | – | – | EC50 [1, 9]: 3.56 µM; EC50 [2, 10]: 3.69 µM; EC50 [3, 11]: 3.62 µM; EC50 ([4]; read-out: Scx-Luc (EC50 uM)): 1.42 µM
Cc1cc(S(=O)(=O)N2CC(F)(F)C2)ccc1-c1ccc2[nH]nc(N)c2c1C [Example 78, 5-(4-((3,3-difluoroazetidin-1-yl)sulfonyl)-2-methylphenyl)-4-methyl-1H-indazol-3-amine] | 4.57 µM | 1.89 µM | 1.16 µM | 2.1 µM | –
